Source: patent US9556201B2, “Bicyclic pyridines and analogs as sirtuin modulators” (GLAXOSMITHKLINE LLC, priority 2009, dated 2017)

Biological target: T1, SIRT1 (Homo sapiens, UniProt Q96EB6)
T1 sequence (Q96EB6 1-747): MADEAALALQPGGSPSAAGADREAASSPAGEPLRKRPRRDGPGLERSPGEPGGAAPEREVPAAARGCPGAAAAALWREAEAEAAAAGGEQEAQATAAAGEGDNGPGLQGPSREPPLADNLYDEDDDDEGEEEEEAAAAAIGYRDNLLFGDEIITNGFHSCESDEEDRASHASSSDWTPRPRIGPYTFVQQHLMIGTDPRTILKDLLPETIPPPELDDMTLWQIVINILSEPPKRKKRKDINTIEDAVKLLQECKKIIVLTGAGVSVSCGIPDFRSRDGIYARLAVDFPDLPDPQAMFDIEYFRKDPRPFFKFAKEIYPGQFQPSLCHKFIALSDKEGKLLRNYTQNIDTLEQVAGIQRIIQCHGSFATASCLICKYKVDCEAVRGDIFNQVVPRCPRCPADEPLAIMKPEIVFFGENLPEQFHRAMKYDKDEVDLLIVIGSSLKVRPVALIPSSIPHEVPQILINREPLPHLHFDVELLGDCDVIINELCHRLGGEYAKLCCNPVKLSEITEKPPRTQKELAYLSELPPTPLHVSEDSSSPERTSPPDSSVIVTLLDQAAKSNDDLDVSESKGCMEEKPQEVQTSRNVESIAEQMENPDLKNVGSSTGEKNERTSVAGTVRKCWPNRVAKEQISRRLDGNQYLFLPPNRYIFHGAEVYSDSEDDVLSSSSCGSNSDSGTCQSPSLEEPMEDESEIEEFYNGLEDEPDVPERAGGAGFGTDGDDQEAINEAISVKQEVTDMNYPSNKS
Assay: Mass spectrometry based assay to identify modulators of SIRT1 activity (deacetylation of p53-based acetylated peptide substrate)
Format: biochemical
Conditions: for Emax: 25 min, SIRT1 activation, read-out: % FOLD ACT. (percent maximum fold activation)
In short: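 His-tagged human SIRT1 (10 nM, E. coli) incubated 25 min at 25 °C with […] p53-derived acetylated 5TMR peptide and 120 μM βNAD+ in pH 8 Tris-acetate buffer, then formic acid-stopped. Mass spectrometry quantifies acetylated vs deacetylated peptide; nicotinamide and DMSO controls.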

| SMILES | EC1.5 (concentration giving 1.5-fold activation) | Emax |
| --- | --- | --- |
| CCN1C(=O)CCN(C(=O)Nc2ccncn2)c2nc(-c3cccc(Cl)c3)ccc21 [Compound 775] | > 25 µM | ≤ 200% |
| CCN1C(=O)CCN(C(=O)Nc2cccc(C)n2)c2nc(-c3cccc(Cl)c3)ccc21 [Compound 776] | > 25 µM | ≤ 200% |
| CCN1CCCN(C(=O)Nc2ccncc2)c2nc(-c3cccc(Cl)c3)ccc21 [Compound 777] | 1 to 25 µM | > 200% |
| O=C(Nc1ccccn1)N1CCCC(F)(F)c2ccc(-c3cccc(Cl)c3)nc21 [Compound 778] | > 25 µM | ≤ 200% |
| Cc1csc(NC(=O)N2CCCC(F)(F)c3ccc(-c4cccc(Cl)c4)nc32)n1 [Compound 779] | > 25 µM | ≤ 200% |
| Cc1cccc(NC(=O)N2CCCC(F)(F)c3ccc(-c4cccc(Cl)c4)nc32)n1 [Compound 780] | > 25 µM | ≤ 200% |
| O=C(Nc1cccc(OC[C@H](O)CO)n1)N1CCCC(F)(F)c2ccc(-c3cccc(Cl)c3)nc21 [Compound 781] | 1 to 25 µM | > 200% |
| O=C(Nc1ccncc1F)N1CCCC(F)(F)c2ccc(-c3cccc(Cl)c3)nc21 [Compound 782] | > 25 µM | ≤ 200% |
| CC1(C)CCN(C(=O)Nc2ccccn2)c2nc(-c3cccc(Cl)c3)ccc2C1=O [Compound 783] | > 25 µM | ≤ 200% |
| Cc1cnccc1NC(=O)N1CCC(C)c2ccc(-c3cccc(C(F)(F)F)c3)nc21 (centres unmarked) [Compound 784] | 1 to 25 µM | > 200% |
| CC1CCN(C(=O)Nc2ccccn2)c2nc(-c3cccc(C(F)(F)F)c3)ccc21 (centres unmarked) [Compound 785, 4-methyl-N-(pyridin-2-yl)-7-(3-(trifluoromethyl)phenyl)-3,4-dihydro-1,8-naphthyridine-1(2H)-carboxamide] | < 1 µM | > 200% |
| CCN1C(=O)CCN(C(=O)Nc2cccc(OC[C@@H](O)CO)n2)c2nc(-c3cccc(Cl)c3)ccc21 [Compound 788] | > 25 µM | ≤ 200% |
| CCN1CCCN(C(=O)Nc2cccnc2)c2nc(-c3cccc(Cl)c3)ccc21 [Compound 789, 7-(3-chlorophenyl)-1-ethyl-N-(pyridin-3-yl)-3,4-dihydro-1H-pyrido[2,3-b][1,4]diazepine-5(2H)-carboxamide] | 1 to 25 µM | > 200% |
| CCN1CCCN(C(=O)Nc2ccccn2)c2nc(-c3cccc(Cl)c3)ccc21 [Compound 790] | > 25 µM | ≤ 200% |
| CCN1C(=O)CCN(C(=O)Nc2ccc(F)cn2)c2nc(-c3cccc(Cl)c3)ccc21 [Compound 791] | > 25 µM | ≤ 200% |
| CCN1C(=O)CCN(C(=O)Nc2ccnc(OC)n2)c2nc(-c3cccc(Cl)c3)ccc21 [Compound 792] | > 25 µM | ≤ 200% |
| CCN1CCCN(C(=O)Nc2cccc(OC[C@@H](O)CO)n2)c2nc(-c3cccc(Cl)c3)ccc21 [Compound 796] | 1 to 25 µM | > 200% |
| CCN1CCCN(C(=O)Nc2cccc(C)n2)c2nc(-c3cccc(Cl)c3)ccc21 [Compound 797] | > 25 µM | ≤ 200% |
| O=C(Nc1ccc(F)cn1)N1CCCC(F)(F)c2ccc(-c3cccc(Cl)c3)nc21 [Compound 798] | > 25 µM | ≤ 200% |
| O=C(Nc1ccncn1)N1CCCC(F)(F)c2ccc(-c3cccc(Cl)c3)nc21 [Compound 799, 2-(3-chlorophenyl)-5,5-difluoro-N-(pyrimidin-4-yl)-7,8-dihydro-5H-pyrido[2,3-b]azepine-9(6H)-carboxamide] | 1 to 25 µM | ≤ 200% |
| CC1CCN(C(=O)Nc2cncnc2)c2nc(-c3cccc(C(F)(F)F)c3)ccc21 (centres unmarked) [Compound 802] | < 1 µM | > 200% |
| CC1CCN(C(=O)Nc2ncccc2F)c2nc(-c3cccc(C(F)(F)F)c3)ccc21 (centres unmarked) [Compound 803] | 1 to 25 µM | > 200% |
| CCN1CCCN(C(=O)Nc2cc(C)cc(C)n2)c2nc(-c3cccc(Cl)c3)ccc21 [Compound 806] | > 25 µM | ≤ 200% |

| SMILES | EC1.5 (concentration giving 1.5-fold activation) | Emax |
| --- | --- | --- |
| CCN1CCCN(C(=O)Nc2ccc(F)cn2)c2nc(-c3cccc(Cl)c3)ccc21 [Compound 807] | > 25 µM | ≤ 200% |
| CCN1CCCN(C(=O)Nc2ccncc2F)c2nc(-c3cccc(Cl)c3)ccc21 [Compound 808] | 1 to 25 µM | > 200% |
| CCN1CCCN(C(=O)Nc2ccncn2)c2nc(-c3cccc(Cl)c3)ccc21 [Compound 809] | 1 to 25 µM | > 200% |
| O=C(Nc1ccncc1)N1CCCCc2ccc(-c3cccc(C(F)(F)F)c3)nc21 [Compound 810] | 1 to 25 µM | > 200% |
| COc1nccc(NC(=O)N2CCCCc3ccc(-c4cccc(C(F)(F)F)c4)nc32)n1 [Compound 811] | 1 to 25 µM | ≤ 200% |
| O=C(Nc1ccccn1)N1CCCCc2ccc(-c3cccc(C(F)(F)F)c3)nc21 [Compound 812] | 1 to 25 µM | ≤ 200% |
| O=C(Nc1ccccn1)N1CCC(F)(F)c2ccc(-c3cccc(C(F)(F)F)c3)nc21 [Compound 814, 4,4-difluoro-N-(pyridin-2-yl)-7-(3-(trifluoromethyl)phenyl)-3,4-dihydro-1,8-naphthyridine-1(2H)-carboxamide] | > 25 µM | ≤ 200% |
| O=C(Nc1ccncn1)N1CCCCc2ccc(-c3cccc(C(F)(F)F)c3)nc21 [Compound 815] | 1 to 25 µM | > 200% |
| O=C(Nc1ccc(F)cn1)N1CCCCc2ccc(-c3cccc(C(F)(F)F)c3)nc21 [Compound 816] | > 25 µM | ≤ 200% |
| O=C(Nc1ccncc1F)N1CCCCc2ccc(-c3cccc(C(F)(F)F)c3)nc21 [Compound 817] | 1 to 25 µM | > 200% |
| Cc1cccc(NC(=O)N2CCCCc3ccc(-c4cccc(C(F)(F)F)c4)nc32)n1 [Compound 818] | > 25 µM | ≤ 200% |
| O=C1CCCN(C(=O)Nc2ccccn2)c2nc(-c3cccc(C(F)(F)F)c3)ccc21 [Compound 819] | < 1 µM | > 200% |
| Cc1cc(NC(=O)N2CCCC(=O)c3ccc(-c4cccc(C(F)(F)F)c4)nc32)ccn1 [Compound 820] | < 1 µM | > 200% |
| O=C1CCCN(C(=O)Nc2ccncc2F)c2nc(-c3cccc(C(F)(F)F)c3)ccc21 [Compound 821] | 1 to 25 µM | > 200% |
| O=C(Nc1ncccc1F)N1CCC(F)(F)c2ccc(-c3cccc(C(F)(F)F)c3)nc21 [Compound 822] | 1 to 25 µM | ≤ 200% |
| Cc1cc(OCC(O)CO)nc(NC(=O)N2CCC(F)(F)c3ccc(-c4cccc(C(F)(F)F)c4)nc32)n1 (centres unmarked) [Compound 824] | 1 to 25 µM | ≤ 200% |
| CC1(C)CCN(C(=O)Nc2ccncc2)c2nc(-c3cccc(C(F)(F)F)c3)ccc21 [Compound 826, 4,4-dimethyl-N-(pyridin-4-yl)-7-(3-(trifluoromethyl)phenyl)-3,4-dihydro-1,8-naphthyridine-1(2H)-carboxamide] | < 1 µM | > 200% |
| CC1(C)CCN(C(=O)Nc2ccccn2)c2nc(-c3cccc(C(F)(F)F)c3)ccc21 [Compound 827] | < 1 µM | > 200% |
| O=C1CCCN(C(=O)Nc2ccncc2)c2nc(-c3cccc(C(F)(F)F)c3)ccc21 [Compound 828] | 1 to 25 µM | > 200% |
| O=C1CCCN(C(=O)Nc2cccnc2)c2nc(-c3cccc(C(F)(F)F)c3)ccc21 [Compound 829] | 1 to 25 µM | > 200% |
| CC1(C)CCN(C(=O)Nc2ccncc2)c2nc(-c3cccc(Cl)c3)ccc2C1=O [Compound 832] | 1 to 25 µM | ≤ 200% |
| CC1(C)CCN(C(=O)Nc2cccnc2)c2nc(-c3cccc(Cl)c3)ccc2C1=O [Compound 833] | > 25 µM | ≤ 200% |
| Cc1cnccc1NC(=O)N1CCC(C)(C)c2ccc(-c3cccc(C(F)(F)F)c3)nc21 [Compound 834, 4,4-dimethyl-N-(3-methylpyridin-4-yl)-7-(3-(trifluoromethyl)phenyl)-3,4-dihydro-1,8-naphthyridine-1(2H)-carboxamide] | 1 to 25 µM | ≤ 200% |
